Structures are written as SMILES. Calls of active or inactive are those of the source. No cut-off for these calls is given here.

The assay concerns the target Heat shock protein HSP90 (Homo sapiens) (UniProt P07900+P08238). The assay can be described thus: Binding affinity to human HSP90-N-Middle Domain expressed in BL21 Escherichia coli after 2 hrs using silver staining by Pull down assay.

As to `CC(C)[C@@H]1NC(=O)[C@H](CCCCNC(=O)CCOCCOCCOCCOCCNC(=O)CCCC[C@@H]2SC[C@@H]3NC(=O)N[C@@H]32)NC(=O)[C@H](CCCCNC(=O)OCc2ccccc2)NC(=O)[C@H](Cc2ccccc2)NC(=O)[C@@H](Cc2ccccc2)N(C)C1=O`, the result was Active.

In the case of `CC(C)C[C@@H]1NC(=O)[C@H](CCCCNC(=O)OCc2ccccc2)NC(=O)[C@H](Cc2ccccc2)NC(=O)[C@@H](Cc2ccccc2)N(C)C(=O)[C@H](CCCCNC(=O)CCOCCOCCOCCOCCNC(=O)CCCC[C@@H]2SC[C@@H]3NC(=O)N[C@@H]32)NC1=O`, the result was Active.

Take `CC(C)C[C@@H]1NC(=O)[C@H](CCCCNC(=O)OCc2ccccc2)NC(=O)[C@H](CCCCNC(=O)CCOCCOCCOCCOCCNC(=O)CCCC[C@@H]2SC[C@@H]3NC(=O)N[C@@H]32)NC(=O)[C@@H](Cc2ccccc2)N(C)C(=O)[C@H](C(C)C)NC1=O`: the outcome was Active.

These data come from ChEMBL document CHEMBL1811842, “Synthesis and evaluation of biotinylated sansalvamide A analogs and their modulation of Hsp90” (Bioorg Med Chem Lett, 2011).
